The results in this text go back to paper PMC5642509, “A small-molecule inhibitor targeting the AURKC–IκBα interaction decreases transformed growth of MDA-MB-231 breast cancer cells” (Oncotarget, 2017).

One assay concerns the target T1, Aurora C (AURKC) (Homo sapiens, UniProt Q9UQB9).
T1 construct: recombinant active AURKC
T1 sequence (Q9UQB9 1-309): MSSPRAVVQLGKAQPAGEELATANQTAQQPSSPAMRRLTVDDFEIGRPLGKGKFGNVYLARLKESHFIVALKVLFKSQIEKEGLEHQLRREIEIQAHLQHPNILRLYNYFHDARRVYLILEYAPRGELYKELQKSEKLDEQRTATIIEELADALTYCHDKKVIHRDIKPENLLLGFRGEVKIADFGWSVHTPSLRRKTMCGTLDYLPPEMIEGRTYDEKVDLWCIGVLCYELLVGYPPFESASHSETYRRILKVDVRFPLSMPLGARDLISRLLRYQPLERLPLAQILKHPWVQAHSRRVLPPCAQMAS
As to the kind of experiment: ATP-competition kinase assay, active AURKC and purified IκBα, pS32 immunoblot (GSK1070916 […], various ATP). The assay is classed as biochemical. (A western blot detects proteins with antibodies after separation by electrophoresis.)

In the next assay the target is T2, pBIND-AURKC (human, UniProt Q9UQB9 1-309).
T2 construct: Aurora C kinase (AURKC); also called pM-BD-pAURKC; source: mammalian two-hybrid fusion, transfected cells
T2 sequence (looked up): T1 sequence (Q9UQB9 1-309)
As to the kind of experiment: two-hybrid; mammalian two-hybrid: pBIND-AURKC, pACT-IκBα and pG5-luciferase transfected in equal amounts; luciferase read-out normalised against the control. The conditions noted are these: partners not purified.

For `CCn1cc(-c2ccnc3[nH]c(-c4cccc(CN(C)C)c4)cc23)c(-c2ccc(NC(=O)N(C)C)cc2)n1` [GSK1070916], at Aurora C (AURKC), the “ATP-competition kinase assay, active AURKC and purified IκBα, pS32 immunoblot (G)” value is “the inhibitory activity of GSK1070916 was inversely proportional to the concentration of ATP (Figure 6E and 6F)”.

B1: pACT-IκBα (natural protein, human, UniProt P25963 1-317, looked up)
chain: MFQAAERPQEWAMEGPRDGLKKERLLDDRHDSGLDSMKDEEYEQMVKELQEIRLEPQEVPRGSEPWKQQLTEDGDSFLHLAIIHEEKALTMEVIRQVKGDLAFLNFQNNLQQTPLHLAVITNQPEIAEALLGAGCDPELRDFRGNTPLHLACEQGCLASVGVLTQSCTTPHLHSILKATNYNGHTCLHLASIHGYLGIVELLVSLGADVNAQEPCNGRTALHLAVDLQNPDLVSLLLKCGADVNRVTYQGYSPYQLTWGRPSTRIQQQLGQLTLENLQMLPESEDEESYDTESEFTEFTEDELPYDDCVFGGQRLTL
notes: IκBα; also called pVP-IκBα; source: mammalian two-hybrid fusion, transfected cells
With B1, the “fold luciferase activity over the Bind-AURKC vector” value in the assay with pBIND-AURKC was roughly 2.7 fold.
